Results as given in patent US20260374739A1, “SMALL MOLECULAR WEIGHT CHEMICAL COMPOUND TO ANTAGONIZE EPH-EPHRIN TETRAMERIZATION AND INHIBIT BIDIRECTIONAL SIGNALING” (THE BOARD OF REGENTS OF THE UNIVERSITY OF TEXAS SYSTEM, priority 2022, published 2026).
Where “and” joins values, the source holds several entries; their conditions need not be identical. Equal entries are not always repeated. Entries after “also recorded” stand apart in the source; their conditions may differ.

molecular target: T1, EphB1-EphrinB2 (EB2) (Rattus norvegicus, UniProt P09759); experiment: Alpha assay EphB1-EphrinB2 (EB2) interaction; format: binding, mouse EB2; details: not given
T1 construct: rat EphB1-Fc residues 18-538; mouse EB2-His residues 18-232; purchased R&D Systems (EphB1-Fc); Sino Biologicals (EB2-His)
T1 sequence (P09759 18-538): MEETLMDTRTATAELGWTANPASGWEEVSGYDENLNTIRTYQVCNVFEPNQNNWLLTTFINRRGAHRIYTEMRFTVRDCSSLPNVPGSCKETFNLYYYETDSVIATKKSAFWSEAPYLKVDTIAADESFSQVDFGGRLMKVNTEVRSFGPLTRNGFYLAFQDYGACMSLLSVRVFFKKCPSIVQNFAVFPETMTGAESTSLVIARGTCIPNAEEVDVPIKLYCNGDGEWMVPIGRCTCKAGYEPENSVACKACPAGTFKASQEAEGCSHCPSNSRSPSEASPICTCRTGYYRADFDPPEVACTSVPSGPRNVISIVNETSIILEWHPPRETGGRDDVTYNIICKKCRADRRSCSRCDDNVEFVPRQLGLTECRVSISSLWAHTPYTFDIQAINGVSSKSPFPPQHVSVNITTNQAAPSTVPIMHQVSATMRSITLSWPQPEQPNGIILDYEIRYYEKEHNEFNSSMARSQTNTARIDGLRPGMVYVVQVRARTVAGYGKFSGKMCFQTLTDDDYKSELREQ
Source text: A chemiluminescent AlphaScreen™ bead-based proximity assay suitable for HTS was developed to measure the receptor-ligand interaction formed between EphB1 and EphrinB2 (EB2) ectodomains (FIG. 3). Here, when singlet oxygen molecules generated by high energy irradiation of donor beads travel over a constrained distance to excite acceptor beads, a chemiluminescent signal is generated and detected. If an analyte interferes with the EphB1-EB2 protein-protein interaction, close proximity of the donor and acceptor beads will be disrupted resulting in diminished or lost energy transfer and reduced acceptor bead emission.
Test was conducted in the Alpha assay, to see if purified soluble Reelin (previously shown to bind EphB1 ectodomain) can interfere with EphB1-EB2 binding.
The EphB1-EB2 screen was conducted using 0.8 nM of each protein, 50 ng beads per well, and assessed at 5 μM a library of −240,000 small, drug-like chemicals. […] They were also tested in a counter screen designed to identify non-specific compounds. Here, a single-protein Alpha assay was set up using a dual-tagged EphB2-His-Fc ectodomain protein that can bind both donor and acceptor beads to bring them into proximity. If a selected compound simply absorbs the chemiluminescent signal or interferes with bead function/binding or protein folding, it was hypothesized that it would also reduce signals in the single protein assay, and would consider it a false positive.

For Oc1c(CN2CCCCC2)cc(Cl)c2cccnc12 [Compound 76, 5-chloro-7-(piperidin-1-ylmethyl)quinolin-8-ol, reference compound], which “antagonism of EphB1-EB2” value is on record?
Its value is “did not exhibit any activity”.

molecular target: T2, EphB1-EphrinB2 (Rattus norvegicus, UniProt P09759); experiment: Octet RED384, immobilized rat EphB1-Fc binding to 30 nM mouse EB2-His (400 sec / 500 sec); design: species or system mouse EphrinB2; details: 100 sec dissociation; read-out: IC50 (response at 100 sec after dissociation step)
T2 construct: rat EphB1-Fc residues 18-538; mouse EB2-His residues 18-232; purchased R&D Systems (EphB1-Fc); Sino Biologicals (EB2-His)
T2 sequence (P09759 18-538): T1 sequence (P09759 18-538)
Description: FIGS. 9A-9B depict Octet RED384 kinetic analysis sensorgram data of 30 nM soluble mouse EphrinB2 (mEB2-His) protein binding to sensorchip immobilized rat EphB1-Fc (FIG. 9A) or mouse EphB4-Fc (FIG. 9B) protein and effect of increased concentration of A20. Association time was for 400 sec and dissociation time was for 500 sec. Binding assays were conducted in PBS containing 0.05% Tween-20 and 1% DMSO.
The experiments described above involve measurements following long-term incubation of proteins with compound and thus represent information after interaction homeostasis has been achieved (FIG. 5A, FIG. 5B, FIG. 5C, and FIG. 5D) or after complexes are extensively washed (ELISAs and pulldowns, FIG. 8). To further analyze biophysical activity of A20 in real-time, kinetic studies were performed using an Octet® RED384 system to visualize the effect of compound on EphB1-EB2 protein-protein binding dynamics. In these experiments, EphB1-Fc ectodomain protein was first sparsely immobilized onto a set of Octet biosensors, […], 1, 10, or 100 μM A20 for a 400 sec association step followed by exposure to buffer only for a 500 sec dissociation step. […] The sensorgram provides various data of the binding kinetics, such as on rates (kon), off rates (koff), and equilibrium dissociation constant (KD). […] Specifically, EphB2 forms a dimer with EphrinB2, and that two dimers then assemble together into a circular tetramer structure (see FIG. 10 and Himanen J P, Rajashankar K R, Lackmann M, Cowan C A, Henkemeyer M, and Nikolov DB. (2001). Crystal structure of an Eph receptor-ephrin complex. Nature 414:933-8, which is incorporated herein by reference in its entirety).
The distinct dimerization and tetramerization interfaces are indicated. Circular tetramers further cluster together to pack in the crystal via additional ligand-ligand (red arrow) and receptor-receptor (blue arrow) interfaces. Many studies by multiple groups show the circular tetramer and tetramer clusters are observed in vivo and that they are needed in order to form the active complex necessary for the transduction of Eph-Ephrin bidirectional signals. […] A variety of methods can be used to compare the different sensorgrams obtained from a dose-dependent run of a drug compound to quantify its LA activity and obtain IC50 information. Single time points in the assay can be picked and response signals obtained at the different compound doses can be compared, such as at 380 sec near the end of the association step or at 100 sec after start of the dissociation step.
Antagonists are classified as either competitive/reversible or irreversible, depending on how the particular inhibitor interacts with its protein targets. A reversible antagonist will bind receptor protein via non-covalent intermolecular forces, and it will eventually dissociate from the receptor, freeing the protein to bind either another antagonist chemical in the solution or its bona-fide ligand protein. […] A competitive antagonist is thought to bind to receptor protein at the same binding site/interface as the endogenous ligand (aka Ephrin), but without activating the receptor. Ligand and antagonist will thus compete for the same binding site on the receptor; when antagonist is bound to receptor it will prevent ligand binding and increasing concentrations of an antagonist will displace in a dose-dependent fashion the ability of ligand from binding the receptor. Since, most receptor antagonists participate in a reversible, non-covalent, competitive type of interaction, two Octet experiments were conducted to determine if this was indeed the mode of action of A20. To determine if A20 is a reversible inhibitor/antagonist, rEphB1-Fc was first immobilized onto sensor chips, then pre-exposed to 100 μM A20, then washed to remove A20, and after baseline measurements then tested for binding to 30 nM soluble mEB2-His protein. […]

For Oc1c(Br)cc(CN2CCOCC2)c2cccnc12 [Compound 6, 4-((7-bromo-8-hydroxyquinolin-1-ium-5-yl)methyl)morpholin-4-ium chloride], which IC50 is on record?
Its IC50 is 2.4 µM.

same assay, conditions: 380 sec association; read-out: IC50 (response at 380 sec after association)

How did the IC50 turn out when Oc1c(Br)cc(CN2CCOCC2)c2cccnc12 [Compound 6, 4-((7-bromo-8-hydroxyquinolin-1-ium-5-yl)methyl)morpholin-4-ium chloride] was run?
Its IC50 is 3.09 µM.

same assay, conditions: Absolute Dissociation IC50, rEphB1-mEphrinB2; immobilized rat EphB1; 50 nM soluble mouse EphrinB2; dissociation; absolute

For Oc1c(Cl)cc(CN2CCOCC2)c2cccnc12 [Compound 4, 4-((7-chloro-8-hydroxyquinolin-1-ium-5-yl)methyl)morpholin-4-ium chloride], which IC50 is on record?
The IC50 was 0.83 µM.

How did the IC50 turn out when Oc1ccc(CN2CCN(Cc3ccc(C(F)(F)F)cc3)CC2)c2cccnc12 [Compound 48, 5-((4-(4-(trifluoromethyl)benzyl)piperazin-1-yl)methyl)quinolin-8-ol] was run?
The IC50 was 15.1 µM.

Which IC50 does the source give for O=[N+]([O-])c1cc(CN2CCOCC2)c2cccnc2c1O [Compound 10, 4-((8-hydroxy-7-nitroquinolin-1-ium-5-yl)methyl)morpholin-4-ium chloride] here?
Its IC50 is 2.48 µM.

same assay, conditions: EphB1-EB2; AUC; read-out: IC50 (area under the curve)

For Oc1c(Br)cc(CN2CCOCC2)c2cccnc12 [Compound 5, 7-bromo-5-(morpholinomethyl)quinolin-8-ol], which IC50 is on record?
Its IC50 is 9.33 µM.

For Oc1c(Br)cc(CN2CCOCC2)c2cccnc12 [Compound 6, 4-((7-bromo-8-hydroxyquinolin-1-ium-5-yl)methyl)morpholin-4-ium chloride], which IC50 is on record?
Its IC50 is 3.63 µM.

same assay, conditions: Relative Dissociation IC50, rEphB1-mEphrinB2; immobilized rat EphB1; 50 nM soluble mouse EphrinB2; dissociation; relative

Oc1c(Cl)cc(CN2CCOCC2)c2cccnc12 [Compound 4, 4-((7-chloro-8-hydroxyquinolin-1-ium-5-yl)methyl)morpholin-4-ium chloride] was tested. Which IC50 did it give?
Its IC50 is 0.64 µM.

Which IC50 does the source give for Oc1ccc(CN2CCN(Cc3ccc(C(F)(F)F)cc3)CC2)c2cccnc12 [Compound 48, 5-((4-(4-(trifluoromethyl)benzyl)piperazin-1-yl)methyl)quinolin-8-ol] here?
Its IC50 is 2.37 µM.

Which IC50 does the source give for O=[N+]([O-])c1cc(CN2CCOCC2)c2cccnc2c1O [Compound 10, 4-((8-hydroxy-7-nitroquinolin-1-ium-5-yl)methyl)morpholin-4-ium chloride] here?
The IC50 was 1.99 µM.

With O=S1(=O)CCN(Cc2ccc(O)c3ncccc23)CC1 [Compound 15, 4-((8-hydroxyquinolin-1-ium-5-yl)methyl)thiomorpholin-4-ium 1,1-dioxide chloride] as the compound, how does the IC50 read?
Its IC50 is 0.9 µM.

same assay, conditions: fold better than free-base

Oc1c(Br)cc(CN2CCOCC2)c2cccnc12 [Compound 6, 4-((7-bromo-8-hydroxyquinolin-1-ium-5-yl)methyl)morpholin-4-ium chloride] was tested. Which “antagonist activity of salt vs free-base” value did it give?
The value was 2-3 fold.

same assay, conditions: rEphB1-mEphrinB2; immobilized rat EphB1; 50 nM soluble mouse EphrinB2; association; absolute; read-out: Absolute Association IC50

Which IC50 does the source give for Oc1c(Cl)cc(CN2CCOCC2)c2cccnc12 [Compound 4, 4-((7-chloro-8-hydroxyquinolin-1-ium-5-yl)methyl)morpholin-4-ium chloride] here?
The IC50 was 14.2 µM.

How did the IC50 turn out when Oc1ccc(CN2CCN(Cc3ccc(C(F)(F)F)cc3)CC2)c2cccnc12 [Compound 48, 5-((4-(4-(trifluoromethyl)benzyl)piperazin-1-yl)methyl)quinolin-8-ol] was run?
The IC50 was 100 µM.

With O=[N+]([O-])c1cc(CN2CCOCC2)c2cccnc2c1O [Compound 10, 4-((8-hydroxy-7-nitroquinolin-1-ium-5-yl)methyl)morpholin-4-ium chloride] as the compound, how does the IC50 read?
Its IC50 is 99 µM.

How did the IC50 turn out when Oc1c(Br)cc(CN2CCOCC2)c2cccnc12 [Compound 6, 4-((7-bromo-8-hydroxyquinolin-1-ium-5-yl)methyl)morpholin-4-ium chloride] was run?
Its IC50 is 28.4 µM.

With Oc1c(I)cc(CN2CCOCC2)c2cccnc12 [Compound 8, 4-((8-hydroxy-7-iodoquinolin-1-ium-5-yl)methyl)morpholin-4-ium chloride] as the compound, how does the IC50 read?
Its IC50 is > 1.6 µM and 100 µM.

Which IC50 does the source give for O=S1(=O)CCN(Cc2ccc(O)c3ncccc23)CC1 [Compound 15, 4-((8-hydroxyquinolin-1-ium-5-yl)methyl)thiomorpholin-4-ium 1,1-dioxide chloride] here?
The IC50 was 100 µM.

same assay, conditions: rEphB1-mEphrinB2; immobilized rat EphB1; 50 nM soluble mouse EphrinB2; association; relative; read-out: Relative Association IC50

How did the IC50 turn out when Oc1c(Cl)cc(CN2CCOCC2)c2cccnc12 [Compound 4, 4-((7-chloro-8-hydroxyquinolin-1-ium-5-yl)methyl)morpholin-4-ium chloride] was run?
The IC50 was 0.93 µM.

Which IC50 does the source give for Oc1ccc(CN2CCN(Cc3ccc(C(F)(F)F)cc3)CC2)c2cccnc12 [Compound 48, 5-((4-(4-(trifluoromethyl)benzyl)piperazin-1-yl)methyl)quinolin-8-ol] here?
Its IC50 is > 10 µM.

Which IC50 does the source give for O=[N+]([O-])c1cc(CN2CCOCC2)c2cccnc2c1O [Compound 10, 4-((8-hydroxy-7-nitroquinolin-1-ium-5-yl)methyl)morpholin-4-ium chloride] here?
The IC50 was 5.39 µM.

Which IC50 does the source give for Oc1c(Br)cc(CN2CCOCC2)c2cccnc12 [Compound 6, 4-((7-bromo-8-hydroxyquinolin-1-ium-5-yl)methyl)morpholin-4-ium chloride] here?
Its IC50 is 0.74 µM.

With Oc1c(I)cc(CN2CCOCC2)c2cccnc12 [Compound 8, 4-((8-hydroxy-7-iodoquinolin-1-ium-5-yl)methyl)morpholin-4-ium chloride] as the compound, how does the IC50 read?
Its IC50 is 0.28 µM and 0.53 µM.

For O=S1(=O)CCN(Cc2ccc(O)c3ncccc23)CC1 [Compound 15, 4-((8-hydroxyquinolin-1-ium-5-yl)methyl)thiomorpholin-4-ium 1,1-dioxide chloride], which IC50 is on record?
The IC50 was 100 µM.

same assay, conditions: rEphB1-mEphrinB2; immobilized rat EphB1; 50 nM soluble mouse EphrinB2; dissociation; absolute; read-out: Absolute Dissociation IC50

For Oc1c(I)cc(CN2CCOCC2)c2cccnc12 [Compound 8, 4-((8-hydroxy-7-iodoquinolin-1-ium-5-yl)methyl)morpholin-4-ium chloride], which IC50 is on record?
The IC50 was 0.71 µM and 0.51 µM.

same assay, conditions: rEphB1-mEphrinB2; immobilized rat EphB1; 50 nM soluble mouse EphrinB2; dissociation; relative; read-out: Relative Dissociation IC50

Oc1c(I)cc(CN2CCOCC2)c2cccnc12 [Compound 8, 4-((8-hydroxy-7-iodoquinolin-1-ium-5-yl)methyl)morpholin-4-ium chloride] was tested. Which IC50 did it give?
Its IC50 is 0.51 µM and 0.45 µM.

same assay, conditions: reversibility 100 μM pre-exposure; competition 0.1-1000 nM EB2; listed as A20

How did the “mode of antagonism” value turn out when Oc1c(Br)cc(CN2CCOCC2)c2cccnc12 [Compound 5, 7-bromo-5-(morpholinomethyl)quinolin-8-ol] was run?
Its value is “compound acts as a reversible inhibitor; also recorded: compound is a competitive inhibitor of EphB1-EB2 binding”.
